We go through one compound from ChEMBL document CHEMBL3044539, “Fungichromin: a substance from Streptomyces padanus with inhibitory effects on Rhizoctonia solani” (2003).

For experiment [1], the system named is Rhizoctonia solani. Briefly: Antifungal activity against Rhizoctonia solani AG-4 RST-04 assessed as mycelial growth inhibition at 80 to 120 ug/ml after 2 days. In kind it is functional, organism-based.
Experiment [2] concerns Rhizoctonia solani. As to the kind of experiment: Antifungal activity against Rhizoctonia solani AG-4 RST-04 assessed as mycelial growth inhibition after 2 days. In kind it is functional. Conditions: AG-4 RST-04, 48 h.

In brackets after ≈: the same amount, converted by molar mass. Activity calls are given as the source filed them. The rule behind the calls is not given here.

As a reminder, the MIC is the lowest concentration that inhibits growth of the organism. In the case of `CCCCC[C@@H](O)[C@H]1C(=O)O[C@H](C)[C@@H](O)/C=C/C=C/C=C/C=C/C=C(\C)[C@@H](O)[C@H](O)[C@H](O)C[C@H](O)C[C@H](O)C[C@H](O)C[C@H](O)C[C@@H]1O` [PENTAMYCIN], the “growth inhibition (GI)” value in experiment [1] was “Active”. Besides, the MIC in experiment [2] came out at 72 µg/mL (≈ 107 µM).
